Measured values as given in patent US8809532B2, “Aza-ring fused indole and indoline derivatives” (AbbVie Inc., priority 2009, dated 2014).

Tests used:
[1] = tested on: primary postnatal (P0) cortical cells; experiment: Neurite Outgrowth Assay (Aβ1-42 neuroprotection, high content microscopy); format: cell-based, rat; conditions: n = 3; for % Attenuation Effect of 5 μM Aβ 1-42: 5 μM Aβ1-42; for Emax: Rattus norvegicus, maximum response relative to 300 nM dimebolin, at the noted concentration, read-out: Maximum Effect (of % 300 nM Dimebolin) at Concentration; for Concentration (nM) at which the Maximum Effect was seen: test compound concentration of the maximum response
Procedure: In addition to PC12 cells, other cellular model systems may also be used. Rat cortical cells can be cultured and prepared for high content microscopy analysis as previously described (Hu, M.; Schurdak, M. E.; et al. High content screen microscopy analysis of Aβ1-42-induced neurite outgrowth reduction in rat primary cortical neurons: Neuroprotective effects of α7 neuronal nicotinic acetylcholine receptor ligands. Brain Res. 2007, 1151, 227-235.). Briefly, cortical cell cultures are plated at density of 5×10^5 cells/mL onto poly-D-lysine coated 96-well plates and maintained in a cell incubator at 37° C. with 5% CO2. Experiments are performed using 6-7 day-old cortical cell cultures by treating with test compounds. In some experiments, the effect of test compounds on reversing Aβ toxicity can also be measured (Hu, M.; Schurdak, M. E.; et al. High content screen microscopy analysis of Aβ1-42-induced neurite outgrowth reduction in rat primary cortical neurons: Neuroprotective effects of α7 neuronal nicotinic acetylcholine receptor ligands. Brain Res. 2007, 1151, 227-235.). For assessment of neuroprotective effects, cells are first pretreated with test compounds for about 5 hours. Medium is then replaced with the medium containing freshly prepared about 5 μM Aβ1-42 peptide in the absence or presence of the test compounds for 3 days. The untreated group contains the same percentage of vehicle (DMSO) as in the treatment groups. Cells are fixed with approximately 4% paraformaldehyde containing 0.5% Hoechst 33342 for about 15 minutes, followed by three washes using PBS (pH 7.4) and blocked with 10% donkey serum in PBS for 1 hour at room temperature. The cells are then incubated overnight at about 4° C. with mouse anti-tubulin monoclonal antibody (1:100) for staining neurons and rabbit anti-GFAP (1:1000) for staining glia. In the next day, cells are incubated with FITC-labeled anti-mouse and TRITC-labeled anti-rabbit antibodies (1:1000) for about 1 hour at room temperature. After fixing and staining the cells, nuclei (360/400 nm excitation and 465/300 nm emission filters), neuron (475/350 nm excitation and 535/400 nm emission filters) and glial cell (535 nm excitation and 610 nm emission filters) images are collected using the ImageExpress Micro automatic fluorescent microscopy system (Molecular Devices, Sunnyvale, Calif.) employing a Nikon 10x Plan Fluor objective and Cool Snap HQ CCD camera. The Neurite Outgrowth module in the MetaMorph Imaging software can be used to automatically count total cell number, number of neuron cells, and the extent of neurite outgrowth.
The neurite outgrowth observed for untreated cells is set to 100% response. Treatment of cells with compounds prior to and concomitantly with Aβ1-42 gave a neuroprotective effect with neurite outgrowth maintained or enhanced relative to untreated cells.

[2] = tested on: SK-N-SH human neuroblastoma cells; experiment: Serum Deprivation/JC-1 Mitochondrial Membrane Potential (MMP) Assay; format: cell-based; conditions: for Emax: 18 h, percent maximal JC-1 ratio normalized to the peak value for 10 μM dimebolin, read-out: JC-1 max %; for EC50: JC-1 ratio after ~18 hours serum deprivation, single curve fit to mean data of n=2-3
Procedure: SK—N—SH human neuroblastoma cells obtained from American Type Culture Collection (Rockville, Md.) were maintained in the log phase of growth in Minimal Essential Media (MEM), 10% heat inactivated fetal calf serum and 100 units/mL antibiotic-antimycotic (AA). Cells were cultured and maintained in a humidified incubator at 37° C. under 5% CO2 and 95% air. Cells were trypsinized (0.25%) and subcultured every 3 days and used from 15-18 passages. All cell culture supplies were obtained from Invitrogen (Carlsbad, Calif.).
SK—N—SH cells were plated 2-3 days in advance at a concentration of 50,000 cells/well onto collagen coated black-walled 96 well plates (Becton-Dickinson, Bedford, Mass.) in a total volume of 200 μL. On day of experimental treatment, the media containing serum was aspirated from each well and rinsed once with MEM/1% AA without serum. The cells then were incubated overnight in 100 μL of MEM/1% AA (no serum) with and without dimebolin or novel chemical entities overnight for ˜18 hours. The following day, JC-1 dye (5,5′,6,6′-tetrachloro-1,1′,3,3′-tetraethylbenzimidazolcarbocyanide) was diluted 1:10 into MEM media according to the JC-1 Mitochondrial Membrane Potential Assay Kit: (Cayman Chemical Company, Ann Arbor, Mich.) and then 10 μL of the JC-1 dye solution was added to each well. The plates were centrifuged for 5 minutes at 400×g at room temperature followed by 40 minute incubation at 37° C. The plates were washed twice with 200 μL of provided Assay Buffer followed an addition of 100 μL of Assay Buffer to each well. The plates were read with an excitation and emission of 560 nm and 595 nM for red fluorescence and with an excitation and emission of […] and 535 nM for green fluorescence to determine the final JC-1 value taking the red to green fluorescence ratio. This assay is based on change in mitochondrial membrane potential (MMP) using this lipophilic cationic dye, JC-1, by monitoring the changes in the ratio of red to green fluorescence as the MMP depolarizes. This change in MMP reflects the health of the cell with healthy, viable cells have a high JC-1 ratio and high MMP whereas apoptotic, unhealthy cells have a low JC-1 ratio or low MMP.
For the ability of compounds to reverse the stress due to serum deprivation and increase the JC-1 ratio, the percent maximal intensity in JC-1 ratio was normalized to that induced by the peak value for 10 μM dimebolin and plotted against the compound concentration to calculate EC50 values and to control for plate-to-plate variability. Concentration-response data were analyzed using GraphPad Prism (San Diego, Calif.); the EC50 values were derived from a single curve fit to the mean data of n=2-3, in duplicates.
All compounds were dissolved in dimethyl sulfoxide at 10 mM stock solutions and tested at a concentration that the dimethyl sulfoxide levels never exceeded 1%.

[3] = tested on: primary rat cortical neurons; conditions: comparable to that evoked by BDNF; cited from earlier work
[4] = tested on: patients with mild-to-moderate Alzheimer's disease; conditions: cited from earlier work

Row | SMILES | Emax [2] | EC50 [2] | further results
1 | Cc1ccc(/C=C/c2cccc3c4c([nH]c23)CCN(C)C4)cn1 [Example 1, 2-methyl-6-[(E)-2-(6-methylpyridin-3-yl)vinyl]-2,3,4,5-tetrahydro-1H-pyrido[4,3-b]indole] | 126% | 4.37 µM | % Attenuation Effect of 5 μM Aβ 1-42 [1]: 39 (n = 3) %; Emax [1]: 111%; Concentration (nM) at which the Maximum Effect was seen [1]: 30 nM
2 | CCOC(=O)N1CCc2[nH]c3c(/C=C/c4ccc(C)nc4)cccc3c2C1 [Example 10, ethyl 6-[(E)-2-(6-methylpyridin-3-yl)vinyl]-1,3,4,5-tetrahydro-2H-pyrido[4,3-b]indole-2-carboxylate] | 146% | 3.24 µM | –
3 | CN1CCc2[nH]c3c(C#Cc4ccncc4)cccc3c2C1 [Example 5, 2-methyl-6-(pyridin-4-ylethynyl)-2,3,4,5-tetrahydro-1H-pyrido[4,3-b]indole] | 103% | 4.32 µM | –
4 | Cc1ccc(/C=C/c2cccc3c2N[C@@H]2CCN(C)C[C@H]32)cn1 (relative stereo) [Example 9, (cis)-2-methyl-6-[(E)-2-(6-methylpyridin-3-yl)vinyl]-2,3,4,4a,5,9b-hexahydro-1H-pyrido[4,3-b]indole] | 161% | 7.53 µM | –
5 | Cc1ccc(CCc2cccc3c4c([nH]c23)CCNC4)cn1 [Example 7, 6-[2-(6-methylpyridin-3-yl)ethyl]-2,3,4,5-tetrahydro-1H-pyrido[4,3-b]indole] | 88% | 4.72 µM | –
6 | CCNC(=O)N1CCc2[nH]c3c(/C=C/c4ccc(C)nc4)cccc3c2C1 [Example 11, N-ethyl-6-[(E)-2-(6-methylpyridin-3-yl)vinyl]-1,3,4,5-tetrahydro-2H-pyrido[4,3-b]indole-2-carboxamide] | 186% | 5.1 µM | –
7 | Cc1ccc(C#Cc2cccc3c4c([nH]c23)CCN(C)C4)cn1 [Example 2, 2-methyl-6-[(6-methylpyridin-3-yl)ethynyl]-2,3,4,5-tetrahydro-1H-pyrido[4,3-b]indole] | 176% | 10.8 µM | % Attenuation Effect of 5 μM Aβ 1-42 [1]: 57 (n = 3) %; Emax [1]: 129%; Concentration (nM) at which the Maximum Effect was seen [1]: 300 nM
8 | Cc1ccc(CCc2cccc3c4c([nH]c23)CCN(C)C4)cn1 [Example 3, 2-methyl-6-[2-(6-methylpyridin-3-yl)ethyl]-2,3,4,5-tetrahydro-1H-pyrido[4,3-b]indole] | 115% | 7.64 µM | –
9 | Cc1ccc2c(c1)c1c(n2CCc2ccc(C)nc2)CCN(C)C1 [dimebolin, 2,3,4,5-tetrahydro-2,8-dimethyl-5-[2-(6-methyl-3-pyridinyl)ethyl]-1H-pyrido[4,3-b]indole] | – | – | neurite outgrowth [3]: increase neurite outgrowth; clinical course of disease, ADAS-Cog over baseline ([4]; 20 mg three times a day (60 mg/day)): significant improvement; most frequent adverse event ([4]; reported clinical studies): dry mouth
10 | CC(=O)N1CCc2[nH]c3c(/C=C/c4ccc(C)nc4)cccc3c2C1 [Example 8, 2-acetyl-6-[(E)-2-(6-methylpyridin-3-yl)vinyl]-2,3,4,5-tetrahydro-1H-pyrido[4,3-b]indole] | 155% | 2.98 µM | –
11 | Cc1ccc(/C=C/c2cccc3c4c([nH]c23)CCNC4)cn1 [Example 6, 6-[(E)-2-(6-methylpyridin-3-yl)vinyl]-2,3,4,5-tetrahydro-1H-pyrido[4,3-b]indole] | 132% | 4.13 µM | –
12 | CN1CCc2[nH]c3c(C#Cc4cccnc4)cccc3c2C1 [Example 4, 2-methyl-6-(pyridin-3-ylethynyl)-2,3,4,5-tetrahydro-1H-pyrido[4,3-b]indole] | 199% | 8.93 µM | –
